This passage reports TGI results from PubChem BioAssay (NCI).

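Results reflect a 48-hour exposure of cells in 96-well plates to compound at five concentrations. TGI: concentration producing complete growth inhibition.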

Among the test systems are COLO 205 colon; HS 578T breast; M14 melanoma; OVCAR-5 ovarian; SK-OV-3 ovarian; NCI-H522 lung; OVCAR-3 ovarian; PC-3 prostate; ACHN renal; MDA-MB-231 breast.
Test in all cases: DTP human tumour cell line panel, 48 h

One may read the TGI as the concentration at which net growth stops. Low values mean more potent growth arrest, high ones less potent growth arrest.

As for `COc1ccc(C2C=C(c3ccc(C)cc3)N(c3ccc(OC)cc3[N+](=O)[O-])C3C(=O)OC(=O)C23)c(OC)c1` (stereo not given), the TGI with COLO 205 colon was greater than 100 µM; in the test on HS 578T breast, 57.6 µM; in the test with M14 melanoma, greater than 100 µM; with OVCAR-5 ovarian it was greater than 100 µM; in the test with SK-OV-3 ovarian, greater than 100 µM; in the test on NCI-H522 lung, 53.7 µM. Besides, the TGI with OVCAR-3 ovarian is 59 µM; in the test with PC-3 prostate it was greater than 100 µM; in the test with ACHN renal it was 37.3 µM; in the test with MDA-MB-231 breast, greater than 100 µM.
Regarding `NCCCCNCCCN1CCOC1=O`, the TGI in the test with COLO 205 colon, in the test on HS 578T breast, in the test on M14 melanoma, with OVCAR-5 ovarian, with SK-OV-3 ovarian and in the test on NCI-H522 lung was greater than 100 µM each time. Also, the TGI in the test with OVCAR-3 ovarian, in the test with PC-3 prostate, in the test with ACHN renal and with MDA-MB-231 breast was greater than 100 µM throughout.
On to `CSc1ncc2c(n1)-c1ccccc1OC2NC1CC1` (stereo not given), for which the TGI in the test on COLO 205 colon is greater than 100 µM; in the test on HS 578T breast it was greater than 100 µM; in the test on M14 melanoma, greater than 100 µM; in the test on OVCAR-5 ovarian, greater than 100 µM; with SK-OV-3 ovarian it was greater than 100 µM; in the test on NCI-H522 lung, 82.5 µM. Further, the TGI in the test on OVCAR-3 ovarian, in the test on PC-3 prostate, in the test with ACHN renal and in the test with MDA-MB-231 breast was greater than 100 µM each time.
Consider `CCC1([N+](=O)[O-])CN(N=O)C1`, for which the TGI in the test on COLO 205 colon, in the test with HS 578T breast, with M14 melanoma, in the test on OVCAR-5 ovarian, in the test with SK-OV-3 ovarian and in the test on NCI-H522 lung was greater than 100 µM in each case. The TGI with OVCAR-3 ovarian, in the test with PC-3 prostate, in the test with ACHN renal and in the test with MDA-MB-231 breast was greater than 100 µM each time.
On to `Cc1nc2c(=O)n(-c3ccccc3)c(=O)n(-c3ccccc3)c2o1`, for which the TGI in the test with COLO 205 colon, with HS 578T breast, in the test on M14 melanoma, in the test with OVCAR-5 ovarian, with SK-OV-3 ovarian and with NCI-H522 lung was greater than 100 µM in each case. In addition, the TGI in the test on OVCAR-3 ovarian, in the test on PC-3 prostate, in the test with ACHN renal and in the test on MDA-MB-231 breast was greater than 100 µM in each case.
For the compound `CC1(C)OCC(C2OC(C)(C)OC2[C@H]2O[C@@]3(O)[C@H]4[C@H](C=CC[C@@H]42)[C@@H](OCc2ccccc2)[C@H](OCc2ccccc2)[C@H]3OCc2ccccc2)O1` (stereo not given in full), the TGI in the test on COLO 205 colon, with HS 578T breast, in the test with M14 melanoma, in the test on OVCAR-5 ovarian, with SK-OV-3 ovarian and with NCI-H522 lung was greater than 100 µM in each case. The TGI in the test on OVCAR-3 ovarian, in the test with PC-3 prostate, with ACHN renal and in the test with MDA-MB-231 breast was greater than 100 µM throughout.
On to `CC1(C)C=C(/C=C2/N(S(=O)(=O)C(F)(F)F)C(/C=C3/N(S(=O)(=O)C(F)(F)F)C(C)(C#N)CC3(C)C)=CC2(C)C)N=C1/C=C1/CC(C)(C)C(=O)N1` (stereo not given), for which the TGI in the test with COLO 205 colon was 39.2 µM; in the test on HS 578T breast it was 57.7 µM; in the test with M14 melanoma it was greater than 100 µM; with OVCAR-5 ovarian, greater than 100 µM; in the test with SK-OV-3 ovarian it was greater than 100 µM; in the test with NCI-H522 lung, 27.9 µM. The TGI in the test on OVCAR-3 ovarian, in the test with PC-3 prostate, in the test with ACHN renal and in the test on MDA-MB-231 breast was greater than 100 µM throughout.
As for `C/C(=C\CSCC(N)C(=O)O)CC/C=C(\C)CNc1ccccc1` (stereo not given), the TGI with COLO 205 colon, with HS 578T breast, with M14 melanoma, in the test on OVCAR-5 ovarian, with SK-OV-3 ovarian and in the test on NCI-H522 lung was greater than 100 µM each time. Also, the TGI in the test with OVCAR-3 ovarian, in the test with PC-3 prostate, in the test on ACHN renal and in the test on MDA-MB-231 breast was greater than 100 µM throughout.
Take `CC1=C(C)SC(=C2Sc3c(n(C)c(=O)n(C)c3=O)S2)S1`: the TGI in the test on COLO 205 colon is greater than 100 µM; in the test on HS 578T breast, greater than 100 µM; in the test with M14 melanoma, greater than 100 µM; with OVCAR-5 ovarian, greater than 100 µM; with SK-OV-3 ovarian, 33.5 µM; with NCI-H522 lung, greater than 100 µM. Moreover, the TGI with OVCAR-3 ovarian was greater than 100 µM; with PC-3 prostate, greater than 100 µM; with ACHN renal, greater than 100 µM; in the test on MDA-MB-231 breast it was 75.3 µM.
As to `O=C1C=CC(=O)c2c(O)c(N3CCC[C@@H]3CO)c(Cl)c(O)c21`, the TGI in the test with COLO 205 colon turned out to be 2.88 µM; in the test on HS 578T breast, 4.03 µM; in the test on M14 melanoma it was 3.2 µM; in the test with OVCAR-5 ovarian, 3.08 µM; with SK-OV-3 ovarian, 7.78 µM; with NCI-H522 lung, 2.36 µM. The TGI in the test with OVCAR-3 ovarian came out at 3.08 µM; in the test with PC-3 prostate, 4.78 µM; in the test with ACHN renal it was 2.96 µM; in the test on MDA-MB-231 breast, 4.03 µM.
As for `C[C@H]1[C@H](C)CC[C@]2(C(=O)OC3OC(CO)C(O)C(O)C3O)CC[C@]3(C)C(=CC[C@@H]4[C@@]5(C)C[C@@H](O)[C@@H]6OC(=O)c7cc(O)c(O)c(O)c7-c7c(cc(O)c(O)c7O)C(=O)OC[C@@]6(CO)[C@@H]5CC[C@]43C)[C@H]12` (stereo not given in full), the TGI in the test on COLO 205 colon, in the test on HS 578T breast, in the test with M14 melanoma, in the test on OVCAR-5 ovarian, in the test on SK-OV-3 ovarian and in the test with NCI-H522 lung was greater than 100 µM throughout. Moreover, the TGI is greater than 91.4 µM with OVCAR-3 ovarian, greater than 100 µM with PC-3 prostate, greater than 100 µM with ACHN renal and 37 µM in the test on MDA-MB-231 breast.
Regarding `CCOC(=O)/C=C/CCC(C)(C)COC(C)=O`, the TGI in the test with COLO 205 colon, in the test on HS 578T breast, in the test with M14 melanoma, with OVCAR-5 ovarian, in the test on SK-OV-3 ovarian and in the test on NCI-H522 lung was greater than 10 µM each time. The TGI with OVCAR-3 ovarian, in the test with PC-3 prostate, in the test with ACHN renal and with MDA-MB-231 breast was greater than 10 µM throughout.
Take `NC(=O)c1ccc[n+](C2=C([O-])c3ccccc3C(=O)/C2=N\S(=O)(=O)c2ccccc2)c1`: the TGI in the test with COLO 205 colon is 30.2 µM; with HS 578T breast it was 47.3 µM; with M14 melanoma it was 29.1 µM; in the test on OVCAR-5 ovarian, 33.3 µM; in the test with SK-OV-3 ovarian it was greater than 100 µM; with NCI-H522 lung, 24.1 µM. Also, the concentration for total growth inhibition (TGI) in the test on OVCAR-3 ovarian was found to be 17 µM; in the test with PC-3 prostate, 30.2 µM; in the test on ACHN renal, 26.4 µM; in the test on MDA-MB-231 breast, 34.5 µM.
With `C[As+](C)(c1ccc(Br)c([N+](=O)[O-])c1)c1ccc(Br)c([N+](=O)[O-])c1.O=[N+]([O-])O`, the TGI in the test with COLO 205 colon, in the test with HS 578T breast, in the test with M14 melanoma, with OVCAR-5 ovarian, in the test with SK-OV-3 ovarian and in the test on NCI-H522 lung was greater than 100 µM each time. Further, the TGI in the test on OVCAR-3 ovarian, in the test on PC-3 prostate, in the test with ACHN renal and with MDA-MB-231 breast was greater than 100 µM each time.
For the compound `N#CCCN(CCC#N)c1ccc(C(N=Nc2ccccc2)=Nc2ccc(F)cc2)cc1`, the TGI is greater than 100 µM in the test with COLO 205 colon; greater than 100 µM with HS 578T breast; greater than 100 µM with M14 melanoma; greater than 100 µM in the test with OVCAR-5 ovarian; greater than 100 µM with SK-OV-3 ovarian; 69.8 µM in the test on NCI-H522 lung. Besides, the TGI in the test with OVCAR-3 ovarian, with PC-3 prostate, in the test with ACHN renal and in the test on MDA-MB-231 breast was greater than 100 µM in each case.
Take `CC(=O)/C(=N\Nc1ccc(Cl)cc1)C(C)=Nc1ccc(C)cc1`: the TGI in the test with COLO 205 colon was 43.1 µM; with HS 578T breast it was greater than 100 µM; with M14 melanoma, 58 µM; with OVCAR-5 ovarian, greater than 100 µM; with SK-OV-3 ovarian, greater than 100 µM; in the test on NCI-H522 lung, 66.7 µM. For the same compound, the TGI is 84.5 µM with OVCAR-3 ovarian, greater than 100 µM with PC-3 prostate, 61.3 µM in the test on ACHN renal and greater than 100 µM in the test with MDA-MB-231 breast.
Consider `Cc1cccc2c1CC(Cc1ccccc1C(=O)O)C2=O` (stereo not given), for which the TGI in the test on COLO 205 colon, in the test with HS 578T breast, with M14 melanoma, in the test on OVCAR-5 ovarian, in the test on SK-OV-3 ovarian and in the test with NCI-H522 lung was greater than 100 µM each time. For the same compound, the TGI in the test with OVCAR-3 ovarian, in the test on PC-3 prostate, with ACHN renal and in the test with MDA-MB-231 breast was greater than 100 µM in each case.
For `Cc1cc(-c2ccccc2)nc2oc(=O)n(C)c12`, the TGI with COLO 205 colon, with HS 578T breast, with M14 melanoma, in the test with OVCAR-5 ovarian, in the test with SK-OV-3 ovarian and in the test with NCI-H522 lung was greater than 100 µM throughout. Moreover, the TGI in the test on OVCAR-3 ovarian, in the test on PC-3 prostate, in the test with ACHN renal and with MDA-MB-231 breast was greater than 100 µM throughout.
For the compound `N#C/C(C(=O)NCc1ccccc1)=C(/N)N1CCCC1`, the TGI in the test with COLO 205 colon, with HS 578T breast, in the test with M14 melanoma, with OVCAR-5 ovarian, in the test with SK-OV-3 ovarian and in the test on NCI-H522 lung was greater than 100 µM in each case. Besides, the TGI in the test with OVCAR-3 ovarian, in the test with PC-3 prostate, in the test with ACHN renal and in the test with MDA-MB-231 breast was greater than 100 µM in each case.
